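Briefly, cells in 96-well plates were exposed to five compound concentrations for 48 h, and endpoints were estimated by linear interpolation. GI50: concentration for 50% inhibition of growth. TGI: concentration producing complete growth inhibition.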
Tests used:
Assay in all cases: NCI anticancer screen, dose series, 48 h
UACC-257 melanoma = tested on: UACC-257 melanoma
HL-60(TB) leukemia = tested on: HL-60(TB) leukemia
K-562 leukemia = tested on: K-562 leukemia
CAKI-1 renal = tested on: CAKI-1 renal
A498 renal = tested on: A498 renal
SN12C renal = tested on: SN12C renal
MALME-3M melanoma = tested on: MALME-3M melanoma
NCI-H23 lung = tested on: NCI-H23 lung
IGROV1 ovarian = tested on: IGROV1 ovarian
UO-31 renal = tested on: UO-31 renal

Row | Structure (SMILES) | GI50 (UACC-257 melanoma) [µM] | TGI (UACC-257 melanoma) [µM] | GI50 (HL-60(TB) leukemia) [µM] | TGI (HL-60(TB) leukemia) [µM] | GI50 (K-562 leukemia) [µM] | TGI (K-562 leukemia) [µM] | GI50 (CAKI-1 renal) [µM] | TGI (CAKI-1 renal) [µM] | GI50 (A498 renal) [µM] | TGI (A498 renal) [µM] | GI50 (SN12C renal) [µM] | TGI (SN12C renal) [µM] | GI50 (MALME-3M melanoma) [µM] | TGI (MALME-3M melanoma) [µM] | GI50 (NCI-H23 lung) [µM] | TGI (NCI-H23 lung) [µM] | GI50 (IGROV1 ovarian) [µM] | TGI (IGROV1 ovarian) [µM] | GI50 (UO-31 renal) [µM] | TGI (UO-31 renal) [µM]
1 | CC(CN(CP(=O)([O-])[O-])CP(=O)([O-])[O-])N(CP(=O)([O-])[O-])CP(=O)([O-])[O-].N[C@@H]1CCCC[C@@H]1N.[Pt+2] (stereo not given) | > 100 | > 100 | > 100 | > 100 | > 100 | > 100 | > 100 | > 100 | > 100 | > 100 | > 100 | > 100 | > 100 | > 100 | > 100 | > 100 | > 100 | > 100 | > 100 | > 100
2 | Cc1cc(Cl)ccc1NC(=O)C1C(=O)N(c2ccc(Cl)cc2C)C(=O)/C1=N\N (stereo not given) | – | > 100 | – | > 100 | – | > 100 | – | > 100 | – | 93.7 | – | > 100 | – | > 100 | – | > 100 | – | > 100 | – | > 100
3 | CCOc1ccc2c(c1)/C(=C\C=C\C1CC(C)C3CC(OCC)CCC3N1CC)CC(C)N2CC (stereo not given) | 0.795 | 2.15 | 1.82 | 5.71 | 0.685 | 2.62 | 1.65 | 4.16 | 0.378 | 1.83 | 0.471 | 1.81 | 1.61 | 3.42 | 0.567 | 2.38 | 1.11 | 3.13 | 1.59 | 3.31
4 | N#CC(C#N)=C1NC(=O)C(c2ccccc2)C(=O)N1 (stereo not given) | – | > 100 | – | > 100 | – | > 100 | – | > 100 | – | > 100 | – | > 100 | – | > 100 | – | > 100 | – | > 100 | – | > 100
5 | NC(=O)NC(=O)CI | 3.96 | 13.4 | 1.94 | 4.02 | 1.03 | 3.6 | 2.32 | 5.51 | 15 | 31.7 | 6.63 | 19.2 | 1.42 | 3.32 | 5.75 | 21 | 3.67 | 11.5 | 1.68 | 3.19
6 | CC(C)(C)c1ccccc1NS(=O)(=O)c1ccccc1 | – | > 100 | – | > 100 | – | > 100 | – | > 100 | – | > 100 | – | > 100 | – | > 100 | – | > 100 | – | > 100 | – | > 100
7 | Cn1cccc1-c1cc(-c2ccc(Br)cc2)nc(N)c1C#N | > 100 | > 100 | 0.413 | > 100 | > 100 | > 100 | > 100 | > 100 | 91.8 | > 100 | > 100 | > 100 | > 100 | > 100 | > 100 | > 100 | 70 | > 100 | > 100 | > 100
8 | COc1ccccc1Nc1nc(-c2cc3cccc(C(F)(F)F)c3oc2=O)cs1 | 1.71 | > 100 | 0.186 | 0.521 | 0.0538 | > 100 | 0.142 | > 100 | 0.0366 | 38.9 | 1.04 | > 100 | 1.63 | > 85.6 | 0.345 | > 45.9 | 0.257 | > 53 | 0.527 | > 57.1
9 | CC(C)(C)c1ccc(-c2nnc(SCc3ccc(Cl)cc3)n2-c2cccc(C(F)(F)F)c2)cc1 | – | > 72.6 | – | 14.6 | – | > 100 | – | > 100 | – | > 100 | – | 14 | – | > 100 | – | > 100 | – | > 100 | – | 34.2
10 | COc1ccccc1NC(=O)C1=C(C)NC(C)=C(C(=O)Nc2ccccc2OC)C1c1ccc(C(C)C)cc1 | – | > 100 | – | > 1 | – | > 1 | – | > 100 | – | > 100 | – | > 100 | – | > 100 | – | > 100 | – | > 100 | – | > 100

Reference: PubChem BioAssay (NCI)
